Calls of active or inactive are those of the source. The calls are words filed in the database; no cut-off is given here.
Assays:
[1] = biological target: NACHT, LRR and PYD domains-containing protein 3 (Mus musculus) (UniProt Q8R4B8); assay: Inhibition of NLRP3 inflammasome activation in ICR mouse BMDM assessed as inhibition of LPS/nigericin-stimulated IL-1 beta secretion in cell supernatant at 1 uM treated for 3 hrs with LPS followed by incubation with compound for 1 hr and later stimulated with nigericin for 0.5 hrs by ELISA; format: cell-based; details: time 1.5 hrs
NACHT, LRR and PYD domains-containing protein 3 (Mus musculus), sequence (Q8R4B8 whole entry, the tested form may be a part): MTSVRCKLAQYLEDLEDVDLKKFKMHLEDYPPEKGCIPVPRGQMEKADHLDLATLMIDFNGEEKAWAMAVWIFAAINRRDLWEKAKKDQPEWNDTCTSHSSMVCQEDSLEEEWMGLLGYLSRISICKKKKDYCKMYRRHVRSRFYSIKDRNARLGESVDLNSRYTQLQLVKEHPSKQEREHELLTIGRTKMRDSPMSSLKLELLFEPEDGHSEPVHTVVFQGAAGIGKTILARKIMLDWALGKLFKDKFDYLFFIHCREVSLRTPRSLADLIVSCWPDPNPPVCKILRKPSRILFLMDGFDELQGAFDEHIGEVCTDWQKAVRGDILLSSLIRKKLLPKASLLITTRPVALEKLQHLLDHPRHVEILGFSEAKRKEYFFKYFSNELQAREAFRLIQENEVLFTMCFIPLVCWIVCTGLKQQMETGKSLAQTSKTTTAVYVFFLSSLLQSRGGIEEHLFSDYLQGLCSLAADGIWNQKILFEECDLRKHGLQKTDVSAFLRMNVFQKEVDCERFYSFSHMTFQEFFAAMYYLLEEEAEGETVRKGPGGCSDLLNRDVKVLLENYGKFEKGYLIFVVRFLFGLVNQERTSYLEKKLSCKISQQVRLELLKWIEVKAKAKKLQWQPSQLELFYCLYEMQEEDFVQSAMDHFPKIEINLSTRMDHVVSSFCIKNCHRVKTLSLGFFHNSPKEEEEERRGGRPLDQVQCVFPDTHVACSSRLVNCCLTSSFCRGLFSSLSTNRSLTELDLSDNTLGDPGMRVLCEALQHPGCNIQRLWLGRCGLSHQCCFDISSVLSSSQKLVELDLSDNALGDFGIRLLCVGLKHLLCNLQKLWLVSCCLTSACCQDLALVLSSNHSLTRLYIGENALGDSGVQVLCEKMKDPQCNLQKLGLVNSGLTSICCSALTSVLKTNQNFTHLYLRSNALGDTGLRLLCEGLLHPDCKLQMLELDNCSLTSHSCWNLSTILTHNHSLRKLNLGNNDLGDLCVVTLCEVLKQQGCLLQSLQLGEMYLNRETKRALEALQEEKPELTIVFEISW

[2] = biological target: NACHT, LRR and PYD domains-containing protein 3 (Mus musculus) (UniProt Q8R4B8); assay: (§1) Inhibition of NLRP3 inflammasome activation in ICR mouse BMDM assessed as inhibition of LPS/ATP-stimulated caspase-1 expression in cell supernatant at 1 uM treated for 3 hrs with LPS followed by incubation with compound for 1 hr and later stimulated with ATP for 0.5 hrs by western blot analysis; format: cell-based; details: time 1.5 hrs
[3] = biological target: NACHT, LRR and PYD domains-containing protein 3 (Mus musculus) (UniProt Q8R4B8); assay: Inhibition of NLRP3 inflammasome priming in ICR mouse BMDM assessed as inhibition of pro-caspase-1 expression in cell supernatant at 0.2 to 5 uM pretreated with compound for 1 hr followed by stimulation with LPS for 3 hrs and later incubated with ATP for 30 mins by western blot analysis; format: cell-based; details: dose 0.2-5 µM, time 4.5 hrs
[4] = biological target: NACHT, LRR and PYD domains-containing protein 3 (Mus musculus) (UniProt Q8R4B8); assay: Inhibition of NLRP3 inflammasome priming in ICR mouse BMDM assessed as inhibition of pro-IL1 beta protein expression in cell lysate at 1 uM treated for 3 hrs with LPS followed by incubation with compound for 1 hr and later stimulated with MSU for 4 hrs by western blot analysis; format: subcellular; details: time 5.0 hrs
[5] = biological target: NACHT, LRR and PYD domains-containing protein 3 (Mus musculus) (UniProt Q8R4B8); assay: Inhibition of NLRP3 inflammasome activation in ICR mouse BMDM assessed as inhibition of LPS/ATP-stimulated IL-1 beta expression in cell supernatant treated for 3 hrs with LPS followed by incubation with compound for 1 hr and later stimulated with ATP for 0.5 hrs by western blot analysis; format: cell-based; details: dose 0.2-5 µM, time 1.5 hrs
[6] = biological target: NACHT, LRR and PYD domains-containing protein 3 (Mus musculus) (UniProt Q8R4B8); assay: Inhibition of NLRP3 inflammasome priming in ICR mouse BMDM assessed as inhibition of pro-caspase-1 protein expression in cell lysate at 0.2 to 5 uM treated for 3 hrs with LPS followed by incubation with compound for 1 hr and later stimulated with ATP for 0.5 hrs by western blot analysis; format: subcellular; details: dose 0.2-5 µM, time 1.5 hrs
[7] = biological target: NACHT, LRR and PYD domains-containing protein 3 (Mus musculus) (UniProt Q8R4B8); assay: Inhibition of NLRP3 inflammasome priming in ICR mouse BMDM assessed as inhibition of pro-caspase-1 expression in cell lysate at 1 uM treated for 3 hrs with LPS followed by incubation with compound for 1 hr and later stimulated with nigericin for 0.5 hrs by western blot analysis; format: subcellular; details: time 1.5 hrs
[8] = biological target: NACHT, LRR and PYD domains-containing protein 3 (Mus musculus) (UniProt Q8R4B8); assay: Inhibition of NLRP3 inflammasome activation in ICR mouse BMDM assessed as inhibition of LPS/MSU-stimulated IL-1 beta secretion in cell supernatant at 1 uM treated for 3 hrs with LPS followed by incubation with compound for 1 hr and later stimulated with MSU for 4 hrs by ELISA; format: cell-based; details: time 5.0 hrs
Mus musculus [9] = assay: Anti-inflammatory activity against LPS-stimulated acute lung injury C57BL/6 mouse model assessed as decrease in IL-1 beta level in serum at 0.1 to 1 mg/kg, ip treated for 3 days and on third day administered with LPS at 30 mins post-compound challenge and measured after 12 hrs by ELISA; format: functional, organism-based; details: dose 0.1-1 mg/kg, time 3.5 day
[10] = biological target: NACHT, LRR and PYD domains-containing protein 3 (Mus musculus) (UniProt Q8R4B8); assay: Inhibition of NLRP3 inflammasome activation in ICR mouse BMDM assessed as inhibition of LPS/MSU-stimulated IL-1 beta expression in cell supernatant at 1 uM treated for 3 hrs with LPS followed by incubation with compound for 1 hr and later stimulated with MSU for 4 hrs by western blot analysis; format: cell-based; details: time 5.0 hrs
[11] = biological target: NACHT, LRR and PYD domains-containing protein 3 (Mus musculus) (UniProt Q8R4B8); assay: Inhibition of NLRP3 inflammasome priming in ICR mouse BMDM assessed as inhibition of pro-IL-1 beta protein expression in cell lysate at 1 uM treated for 3 hrs with LPS followed by incubation with compound for 1 hr and later stimulated with ATP for 0.5 hrs by western blot analysis; format: subcellular; details: time 1.5 hrs
Mus musculus [12] = assay: (§2) Anti-inflammatory activity against LPS-stimulated acute lung injury C57BL/6 mouse model assessed as decrease in partial alveolar congestion in right lung at 1 to 10 mg/kg, ip treated for 3 days and on third day administered with LPS at 30 mins post-compound challenge and measured after 12 hrs by Hematoxylin-Eosin staining analysis; format: functional, organism-based; details: dose 1-10 mg/kg, time 3.5 day
[13] = biological target: NACHT, LRR and PYD domains-containing protein 3 (Mus musculus) (UniProt Q8R4B8); assay: Inhibition of NLRP3 inflammasome priming in ICR mouse BMDM assessed as inhibition of pro-IL-1 beta protein expression in cell lysate at 0.2 to 5 uM treated for 3 hrs with LPS followed by incubation with compound for 1 hr and later stimulated with ATP for 0.5 hrs by western blot analysis; format: subcellular; details: dose 0.2-5 µM, time 1.5 hrs
Mus musculus [14] = assay: Anti-inflammatory activity against LPS-stimulated acute lung injury C57BL/6 mouse model assessed as decrease in TNF-alpha mRNA expression in right lung at 0.1 to 1 mg/kg, ip treated for 3 days and on third day administered with LPS at 30 mins post-compound challenge and measured after 12 hrs by RT-qPCR analysis; format: functional, organism-based; details: dose 0.1-1 mg/kg, time 3.5 day
[15] = biological target: NACHT, LRR and PYD domains-containing protein 3 (Mus musculus) (UniProt Q8R4B8); assay: Inhibition of NLRP3 inflammasome activation in ICR mouse BMDM assessed as inhibition of LPS/ATP-stimulated IL-1 beta expression in cell supernatant at 1 uM treated for 3 hrs with LPS followed by incubation with compound for 1 hr and later stimulated with ATP for 0.5 hrs by western blot analysis; format: cell-based; details: time 1.5 hrs
[16] = biological target: NACHT, LRR and PYD domains-containing protein 3 (Mus musculus) (UniProt Q8R4B8); assay: Inhibition of NLRP3 inflammasome priming in ICR mouse BMDM assessed as inhibition of pro-IL-1 beta expression in cell supernatant at 0.2 to 5 uM pretreated with compound for 1 hr followed by stimulation with LPS for 3 hrs and later incubated with ATP for 30 mins by western blot analysis; format: cell-based; details: dose 0.2-5 µM, time 4.5 hrs
Mus musculus [17] = assay: Anti-inflammatory activity against LPS-stimulated acute lung injury C57BL/6 mouse model assessed as decrease in IL-6 level in BALF at 0.1 to 1 mg/kg, ip treated for 3 days and on third day administered with LPS at 30 mins post-compound challenge and measured after 12 hrs by ELISA; format: functional, organism-based; details: dose 0.1-1 mg/kg, time 3.5 day
Mus musculus [18] = assay: as §2, with “thickening of” for “partial”, “septa” for “congestion”; format: functional, organism-based; details: dose 1-10 mg/kg, time 3.5 day
[19] = biological target: T1, Interferon-inducible protein AIM2 (Mus musculus) (UniProt Q91VJ1); assay: as §1, with “AIM2” for “NLRP3”, “poly(dA:dT)-stimulated” for “LPS/ATP-stimulated”, “cells transfected” for “stimulated”, “poly(dA:dT)” for “ATP”, “4” for “0.5”; format: cell-based; details: time 5.0 hrs
T1 sequence (whole entry): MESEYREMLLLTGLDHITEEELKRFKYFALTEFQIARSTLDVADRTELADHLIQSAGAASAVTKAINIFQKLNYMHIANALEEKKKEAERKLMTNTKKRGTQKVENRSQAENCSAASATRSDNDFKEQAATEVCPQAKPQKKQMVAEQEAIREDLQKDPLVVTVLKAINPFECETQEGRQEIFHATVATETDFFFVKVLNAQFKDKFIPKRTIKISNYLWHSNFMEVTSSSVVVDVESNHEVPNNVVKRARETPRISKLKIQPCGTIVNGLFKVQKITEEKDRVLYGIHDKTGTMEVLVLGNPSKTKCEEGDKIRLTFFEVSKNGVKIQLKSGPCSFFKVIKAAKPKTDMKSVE

Mus musculus [20] = assay: Anti-inflammatory activity against LPS-stimulated acute lung injury C57BL/6 mouse model assessed as decrease in TNF-alpha level in serum at 0.1 to 1 mg/kg, ip treated for 3 days and on third day administered with LPS at 30 mins post-compound challenge and measured after 12 hrs by ELISA; format: functional, organism-based; details: dose 0.1-1 mg/kg, time 3.5 day
[21] = biological target: T1, Interferon-inducible protein AIM2 (Mus musculus); assay: Inhibition of AIM2 inflammasome activation in ICR mouse BMDM assessed as inhibition of poly(dA:dT)-stimulated IL-1 beta secretion in cell supernatant at 1 uM treated for 3 hrs with LPS followed by incubation with compound for 1 hr and later cells transfected with poly(dA:dT) for 4 hrs by ELISA; format: cell-based; details: time 5.0 hrs

inhibition [1]: Active
inhibition [2]: Active
inhibition [3]: inactive
inhibition [4]: inactive
inhibition [5]: Dose-Dependent Effect
inhibition [6]: inactive
inhibition [7]: inactive
inhibition [8]: Active
inhibition [10]: Active
inhibition [11]: inactive
inhibition [13]: inactive
inhibition [15]: Active
inhibition [16]: inactive
inhibition [19]: inactive
inhibition [21]: inactive
SMILES: C=C1C(=O)[C@]23[C@H](OC(=O)Nc4ccc(F)cc4)[C@H]1CC[C@H]2[C@]12C=CCC(C)(C)[C@H]1[C@H](O)[C@@]3(O)OC2
Activity (Mus musculus [9]): Dose-Dependent Effect
Activity (Mus musculus [12]): Active
Activity (Mus musculus [14]): Dose-Dependent Effect
Activity (Mus musculus [17]): Dose-Dependent Effect
Activity (Mus musculus [18]): Active
Activity (Mus musculus [20]): Dose-Dependent Effect

From ChEMBL document CHEMBL6071152, “Design, synthesis, and biological evaluation of oridonin derivatives as novel NLRP3 inflammasome inhibitors for the treatment of acute lung injury” (Eur J Med Chem, 2024)
